Experimental data taken from PubChem BioAssay (NCI).
Several values for one entry are separate records, joined by “and”; a condition that tells them apart may be missing. Equal entries are not always repeated.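 Exposure lasted 48 hours, with cells grown in 96-well plates and compounds tested at five concentrations. At the GI50, growth is halved. TGI: concentration producing complete growth inhibition.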

Columns and labels:
Assay in all cases: DTP human tumour cell line panel, 48 h
MDA-N = tested on: MDA-N
NCI-H522 lung = tested on: NCI-H522 lung
ACHN renal = tested on: ACHN renal
UO-31 renal = tested on: UO-31 renal
COLO 205 colon = tested on: COLO 205 colon
A498 renal = tested on: A498 renal
UACC-257 melanoma = tested on: UACC-257 melanoma
OVCAR-4 ovarian = tested on: OVCAR-4 ovarian
T-47D breast = tested on: T-47D breast
OVCAR-3 ovarian = tested on: OVCAR-3 ovarian

| Structure (SMILES) | TGI (MDA-N) | TGI (NCI-H522 lung) | TGI (ACHN renal) | TGI (UO-31 renal) | TGI (COLO 205 colon) | TGI (A498 renal) | TGI (UACC-257 melanoma) | TGI (OVCAR-4 ovarian) | TGI (T-47D breast) | TGI (OVCAR-3 ovarian) | GI50 (NCI-H522 lung) | GI50 (COLO 205 colon) | GI50 (A498 renal) | GI50 (ACHN renal) | GI50 (UO-31 renal) | GI50 (UACC-257 melanoma) | GI50 (OVCAR-4 ovarian) | GI50 (T-47D breast) | GI50 (OVCAR-3 ovarian) |
| --- | --- | --- | --- | --- | --- | --- | --- | --- | --- | --- | --- | --- | --- | --- | --- | --- | --- | --- | --- |
| S=C(NCc1ccccc1)N/N=C/c1ccccn1 | > 100 µM | 24.5 µM | > 56.1 µM | 21 µM | > 100 µM | > 100 µM | > 100 µM | > 100 µM | > 100 µM | > 100 µM | – | – | – | – | – | – | – | – | – |
| O=C1c2ccccc2-c2[nH]c3cn[nH]c(=O)c3c21 | > 100 µM | 50.9 µM | > 100 µM | > 100 µM | > 100 µM | > 100 µM | > 100 µM | > 100 µM | > 100 µM | > 100 µM | – | – | – | – | – | – | – | – | – |
| Cc1ccc(S(=O)(=O)N(CC(O)COc2ccccc2)c2ccc(F)cc2F)cc1 (stereo unspecified) | 29.8 µM | – | 30.6 µM | 26.9 µM | 28.6 µM | 28.7 µM | 33.3 µM | 23.8 µM | 46.4 µM | 34.4 µM | – | – | – | – | – | – | – | – | – |
| O=C1c2ccccc2C(=O)N1c1nc(-c2ccc(Cl)cc2)cc(N2N=C(c3ccc(Br)cc3)CC2c2ccccc2)n1 (stereo unspecified) | 4.57 µM | 5.51 µM | > 21.7 µM | – | 4.84 µM | 35.4 µM | > 41.4 µM | > 33 µM | 5.26 µM | 2.65 µM | – | – | – | – | – | – | – | – | – |
| O=C(CC1Sc2ccccc2NC1=O)Nc1ccc(Cl)cc1 (stereo unspecified) | – | > 100 µM | > 100 µM | > 100 µM | > 100 µM | > 100 µM | > 100 µM | 47.3 µM | – | > 100 µM | – | – | – | – | – | – | – | – | – |
| COC(=O)c1c(-c2ccc(Cl)cc2)cc2c3ccccc3n(C)c2c1C(=O)OC | > 100 µM | > 100 µM | > 100 µM | > 100 µM | > 100 µM | > 100 µM | > 100 µM | > 100 µM | – | > 100 µM | – | – | – | – | – | – | – | – | – |
| Cc1cc2cc3c(cc2c(-c2ccc(N)cc2)n1)OCO3 | > 100 µM | > 100 µM | > 100 µM | > 100 µM | 88.5 µM | – | > 100 µM | – | > 100 µM | 67.9 µM | – | – | – | – | – | – | – | – | – |
| CSc1nc(NC(C)C)c2c(n1)Sc1nc3ccccc3n1C2O (stereo unspecified) | 11.9 µM | 24.7 µM | 81.8 µM | 27.8 µM | 14.3 µM | – | > 100 µM | > 100 µM | 22.4 µM | 5.88 µM | – | – | – | – | – | – | – | – | – |
| CCOC(=O)C(=O)C(=O)NN(C)C1=NCCN1 | > 100 µM | > 100 µM | > 100 µM | > 100 µM | > 100 µM | – | > 100 µM | > 100 µM | > 100 µM | > 100 µM | – | – | – | – | – | – | – | – | – |
| COC(=O)C1=C(O)C(C(=O)OC)[C@]2(O)[C@H](C(=O)OC)[C@H]1C[C@@H](c1ccc([N+](=O)[O-])cc1)[C@H]2C(=O)OC (stereo partly specified) | 35.6 µM | 8.58 µM | 32.9 µM | – | 65.2 µM | – | > 100 µM | > 100 µM | > 100 µM | > 100 µM | – | – | – | – | – | – | – | – | – |
| Cc1nc(-c2cc3cc(Cl)ccc3oc2=O)cc2c1c(=O)oc1ccc(Cl)cc12 | > 100 µM | > 100 µM | > 100 µM | > 100 µM | > 100 µM | > 100 µM | > 100 µM | – | > 100 µM | > 100 µM | – | – | – | – | – | – | – | – | – |
| O=C1C=CC(=O)c2c(O)c(N3CCN(CCOCCO)CC3)c(Cl)c(O)c21 | – | 1.19 µM and 0.352 µM | – | – | – | 5.65 µM [middle of 4 runs] | – | – | – | 2.14 µM [middle of 4 runs] | 0.313 µM | 156 nM [middle of 4 runs] | 2.57 µM [middle of 4 runs] | – | – | – | – | – | – |
| CS(=O)(=O)NC12CCC(c3ccccc31)c1ccccc12 | > 100 µM | > 100 µM | > 100 µM | > 100 µM | > 100 µM | > 100 µM | – | > 100 µM | > 100 µM | > 100 µM | – | – | – | – | – | – | – | – | – |
| CCC(CC(C)C)Nc1ccc(NC(CC)CC(C)C)cc1 (stereo unspecified) | – | 15.1 µM | 28.5 µM | 29.3 µM | 23 µM | 95.8 µM | 28.4 µM | 26.8 µM | 26.7 µM | 26 µM | 3.82 µM | 11 µM | 23.8 µM | 15.3 µM | 14.8 µM | 13.3 µM | 13.9 µM | 12.7 µM | 13.3 µM |
| Cc1ccccc1OC(C)C(=O)NN1C(=O)CC(=O)N(c2ccccc2)C1=S (stereo unspecified) | – | > 100 µM | > 100 µM | > 100 µM | > 100 µM | > 100 µM | > 100 µM | > 100 µM | > 100 µM | > 100 µM | – | – | – | – | – | – | – | – | – |
| CC(C)(C)OC(=O)n1cc(C2CN(O)C(=O)C23CCC(=O)N3Cc2ccccc2)c2ccccc21 (stereo unspecified) | > 100 µM | 31.7 µM | – | > 100 µM | > 100 µM | 74.8 µM | > 100 µM | > 100 µM | > 100 µM | > 100 µM | – | – | – | – | – | – | – | – | – |
| O=C1C=CC(=O)c2c(Cl)ccc(O)c21 | – | 26.8 µM | – | > 100 µM | 25.8 µM | > 100 µM | 29.8 µM | 32.5 µM | – | 29.1 µM | – | – | – | – | – | – | – | – | – |
| COc1ccccc1CNCCCCCCCCCCCCN1C(=O)c2ccc3c4c(ccc(c24)C1=O)C(=O)N(CCCCCCCCCCCCNCc1ccccc1OC)C3=O | – | > 50 µM | > 50 µM | – | > 50 µM | 1.8 µM | > 5 µM | > 50 µM | > 50 µM | – | > 50 µM | > 50 µM | 0.806 µM | > 50 µM | – | > 5 µM | > 50 µM | > 50 µM | – |
| CSc1ccc(/C=C2\N=C(c3ccccc3)N(/N=C/c3cc4cc(C)ccc4nc3Cl)C2=O)cc1 | 34.5 µM | – | 35.1 µM | 33.4 µM | 39.4 µM | 43 µM | 39.8 µM | 39.3 µM | 91 µM | 48.7 µM | – | – | – | – | – | – | – | – | – |
| CC(=O)/C(=C\c1ccc(Cl)c(Cl)c1)C(=O)C(C)CN(C)C (stereo unspecified) | 16.2 µM | – | 17.9 µM | 14.5 µM | 24.4 µM | 8.16 µM | 23.7 µM | – | 12.3 µM | 16.1 µM | – | – | – | – | – | – | – | – | – |
| C/C(Nc1ccc(Cl)cc1Cl)=C1/CCOC1=O | – | > 100 µM | > 100 µM | > 100 µM | > 100 µM | > 100 µM | > 100 µM | > 100 µM | > 100 µM | > 100 µM | – | – | – | – | – | – | – | – | – |
